The target in series [1] is T1, GPR35 (Homo sapiens (Human), UniProt Q9HC97). The note with it: reported in US20130316985; read-out: EC50 (weak agonist activity at GPR35); cited from earlier work.
Target sequence in this assay (Q9HC97 whole entry, species assumed): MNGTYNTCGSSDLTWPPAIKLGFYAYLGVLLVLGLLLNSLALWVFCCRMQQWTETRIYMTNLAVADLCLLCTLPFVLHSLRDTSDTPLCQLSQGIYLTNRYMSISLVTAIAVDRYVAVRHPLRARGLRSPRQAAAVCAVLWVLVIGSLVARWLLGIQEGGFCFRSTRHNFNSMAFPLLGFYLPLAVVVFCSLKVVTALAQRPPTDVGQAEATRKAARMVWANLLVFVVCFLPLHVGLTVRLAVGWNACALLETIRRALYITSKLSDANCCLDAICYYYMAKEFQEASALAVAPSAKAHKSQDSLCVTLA
For a further series, the system named is TNBS visceral pain. Description: TNBS mouse visceral pain model. In kind it is in vivo.
Series [2] has as its system PGE2-induced fluid secretion. Description: PGE2-induced fluid secretion. The note with it: preclinical species. In kind it is in vivo.
In the next series the test system is LPS challenge. Description: acute rat and mouse LPS challenge. In kind it is in vivo.
Series [3] has as its target T1, GPR35. Description: selectivity for GPR35 / off-target effects.
Target sequence in this assay (Q9HC97 whole entry, species assumed): as above
Series [4] deals with T1, GPR35. Description: Label-free DMR functional assay in HT-29 cells. In kind it is cell-based. The settings on record: for EC50: HT-29 cell line endogenously expressing human GPR35, DMR normalised to Lodoxamide. Here is the method: HT-29 cells (ATCC HTB-38) kept in continuous culture in McCoys (Thermo 16600082) supplemented with 10% FBS. Day prior to assay, cells harvested with TrypLE (Gibco12604-013), and plated at 20 k/well in culture media in a total volume of 50 ul in Corning EPIC 384 well plates (5040) overnight 37° C. 5% CO2. On the day of assay, cell media was removed and replaced with assay buffer (HBSS+20 mM HEPES pH7.4) and reincubated for 1 h. Compounds were prepared in 100% DMSO in ECHO LDV 384 source plates. Cell plates were read on an EPIC plate reader at room temperature for 15 mins, read paused, and cell plate added to LabCyte ECHO 550 for addition of 50 nl per well compound by acoustic transfer. Plates were immediately placed back into the EPIC reader, read unpaused and Dynamic Mass Redistribution measured for 60 minutes. Raw data was analysed by EPIC Analyser software and max peak taken per concentration to enable EC50 determination. All raw DMR data was normalised to Lodoxamide and buffer corrected.
(§1) • Ki values derived from concentration response analysis in HEKf cell membranes overexpressing GPR35a isoform. EC50 values derived from concentration response analysis in HT-29 cell line endogenously expressing human GPR35.
Target sequence in this assay (Q9HC97 whole entry): as the sequence (Q9HC97 whole entry, species assumed) above

Series [5] has as its system major human CYPs, including CYP3A4. Description: drug interaction potential for major human CYPs. It counts as in vitro ADME.
In series [6] the test system is indomethacin ileitis and barrier permeability. Description: indomethacin ileitis and barrier permeability. In kind it is in vivo. The settings on record: preclinical species.
In another series the target is Human GPR35a isoform (Homo sapiens (Human), UniProt Q9HC97). Description: Human GPR35a isoform binding (radioligand, HEK293f membranes). The note with it: HEKf cell membranes overexpressing GPR35a isoform; read-out: Human GPR35 Ki. Here is the method:
Overexpression of Human GPR35a Baculovirus in HEK293f cells at a cell density of 2.5×10^6 cells/mL and a multiplicity of infection of 2.5 over 24 h in Pro293 (Lonza)+5% FBS, 1% Glutamax and 0.4% Pen/Strep. Cells harvested and centrifuged at 2500 RPM for 10 mins at 4° C. The supernatant was then poured off and the pellet stored at −80° C. The pellet was defrosted and re-suspended in 15 mL of homogenising buffer (20 mM HEPES, 10 mM EDTA, pH 7.4). Then homogenised in mechanical homogeniser (VMR) for 10 seconds. The membrane was centrifuged in centrifuge tubes at 40,000 g for 15 mins at 4° C. The supernatant was poured away and re-suspended in 15 mL of homogenising buffer. Homogenised for 20 seconds. The membrane was centrifuged at 40,000 g for 45 mins at 4° C. The membrane was re-suspended in 3 mL of storage buffer (20 mM HEPES, 0.1 mM EDTA, pH 7.4) mixing well. The resulting membranes were then stored at −80°. GPR35 cell membrane homogenates were re-suspended in the binding buffer (50 mM TRIS+10 mM MgCl2 pH 7.4) to a final assay concentration of 5 ug/well. Test compounds were diluted in dimethylsulphoxide (DMSO (Sigma Aldrich, UK)), to form a 10 point ½ log concentration curve. Test compounds were added per plate, followed by 7 nM 3H-27966. 0.1 uM FAC Lodoxamide was added in order to allow non-specific binding to be calculated. Finally, membrane was added to each well on the plate. After 60 min incubation at room temperature, membranes were filtered onto a unifilter, 96-well white microplate with bonded GF/B filter, pre-soaked in ddH20, with a TomTec cell harvester, and washed 5 times with distilled water. Plates were dried prior to 50 ul/well scintillant added, sealed and radioactivity measured using a MicroBeta analyser. IC50 values were derived from the inhibition curve and affinity constant (Ki) values were calculated using the Cheng-Prussoff equation, where; pKi=−log 10 Ki.
as §1

Series [7] addresses T1, GPR35. The settings on record: human vs rat GPR35; cited from earlier work.
Target sequence in this assay (Q9HC97 whole entry): as the sequence (Q9HC97 whole entry, species assumed) above

Read-outs that look alike come from different tables or passages of the source.

The values that follow come from patent publication US20240254093A1, “GPR35 Agonist Compounds” (Heptares Therapeutics Limited, priority 2021, published 2024).

Human GPR35a isoform, sequence (Q9HC97 whole entry, canonical isoform): as the sequence (Q9HC97 whole entry, species assumed) above

The term EC50 denotes the concentration at which the effect is half-maximal. On to `Nc1ccc(O)c(C(=O)O)c1` [5-aminosalicylic acid], for which the EC50 at GPR35 [1] was roughly 3000 nM.

As usually defined, the Ki is the dissociation constant of the complex between target and ligand, obtained from inhibition or displacement. Consider `O=C(NCc1ccccc1)c1ccc(-c2cc(Nc3c(O)c(=O)c3=O)cc(-c3nn[nH]n3)c2)cc1` [Example 5, N-benzyl-3′-((2-hydroxy-3,4-dioxocyclobut-1-en-1-yl)amino)-5′-(1H-tetrazol-5-yl)-[1,1′-biphenyl]-4-carboxamide], for which the “pharmacology in TNBS mouse visceral pain model” value in the series on TNBS visceral pain is on record as “showed pharmacology”. For the same molecule, the “pharmacology in PGE2-induced fluid secretion” value in series [2] was “showed pharmacology”. In addition, in the series with LPS challenge, the “pharmacology in acute rat and mouse LPS challenge” value is “showed pharmacology”. On GPR35 [3], the off-target effects entry is given as “no off-target effects have been observed” and the “selectivity for GPR35” value was “strong selectivity”. This molecule gave an EC50 at GPR35 [4] of 0.52 nM. On GPR35 [4] (relative to Cromolyn), the “functional potency for GPR35 higher than Cromolyn” value is recorded as “about 500 times”. Besides, the “drug interaction potential for the major human CYPs” value in series [5] was “very low drug interaction potential”. The “pharmacology in indomethacin ileitis and barrier permeability” value in [6] was “showed pharmacology”. For the same molecule, at Human GPR35a isoform, the Ki stood at 0.08 nM.

Molecule `O=c1c(O)c(Nc2cc(-c3ccc(OCCOc4cc(C(F)(F)F)cc(C(F)(F)F)c4)nc3)cc(-c3nn[nH]n3)c2)c1=O` [Example 26, 3-((3-(6-(2-(3,5-bis(trifluoromethyl)phenoxy)ethoxy)pyridin-3-yl)-5-(1H-tetrazol-5-yl)phenyl)amino)-4-hydroxycyclobut-3-ene-1,2-dione] gave a concentration giving a half-maximal response (EC50) at GPR35 [4] of 1.04 nM. In addition, at Human GPR35a isoform, the inhibitory constant (Ki) is 0.36 nM.

On GPR35 [4], `O=c1c(O)c(Nc2cc(-c3ccc(OCCOc4ccc(C(F)(F)F)cc4)nc3)cc(-c3nn[nH]n3)c2)c1=O` [Example 27, 3-((3-(1H-tetrazol-5-yl)-5-(6-(2-(4-(trifluoromethyl)phenoxy)ethoxy)pyridin-3-yl)phenyl)amino)-4-hydroxycyclobut-3-ene-1,2-dione] yielded an EC50 of 0.54 nM. Besides, on Human GPR35a isoform, the Ki is 0.75 nM.

The molecule `O=c1c(O)c(Nc2cc(-c3nn[nH]n3)cc(C3CCCCC3)c2)c1=O` [Example 28, 3-((3-cyclohexyl-5-(1H-tetrazol-5-yl)phenyl)amino)-4-hydroxycyclobut-3-ene-1,2-dione] displayed a half-maximal effective concentration (EC50) at GPR35 [4] of 6.65 nM. Besides, the inhibitory constant (Ki) on Human GPR35a isoform worked out at 12.5 nM.

As for `O=c1c(O)c(Nc2cc(-c3ccnnc3)cc(-c3nn[nH]n3)c2)c1=O` [Example 29, 3-hydroxy-4-((3-(pyridazin-4-yl)-5-(1H-tetrazol-5-yl)phenyl)amino)cyclobut-3-ene-1,2-dione], at GPR35 [4], it took 1.05 nM to reach a half-maximal effect (EC50). The inhibitory constant (Ki) at Human GPR35a isoform came to 0.74 nM.

The molecule `CN(C)C(=O)c1ccc(-c2cc(Nc3c(O)c(=O)c3=O)cc(-c3nn[nH]n3)c2)cc1` [Example 30, 3′-((2-hydroxy-3,4-dioxocyclobut-1-en-1-yl)amino)-N,N-dimethyl-5′-(1H-tetrazol-5-yl)-[1,1′-biphenyl]-4-carboxamide] registered an EC50 at GPR35 [4] of 2.64 nM. Moreover, the Ki at Human GPR35a isoform is 5.99 nM.

For `NC(=O)c1ccc(CNC(=O)c2ccc(-c3cc(Nc4c(O)c(=O)c4=O)cc(-c4nn[nH]n4)c3)cc2)cc1` [Example 31, N-(4-carbamoylbenzyl)-3′-((2-hydroxy-3,4-dioxocyclobut-1-en-1-yl)amino)-5′-(1H-tetrazol-5-yl)-[1,1′-biphenyl]-4-carboxamide], at GPR35 [4], the EC50 amounted to 11.3 nM. The Ki at Human GPR35a isoform was found to be 1.61 nM.

As to `O=C(O)c1cc(=O)c2ccccc2[nH]1` [kynurenic acid], the “potency at the human receptor lower compared to the rat ortholog” value at GPR35 [7] is recorded as “at least 100 fold”.

As for `O=C(O)c1cc(/N=N/c2ccc(S(=O)(=O)Nc3ccccn3)cc2)ccc1O` [sulfasalazine], the half-maximal effective concentration (EC50) at GPR35 [1] is roughly 3000 nM.
